The structures appear in SMILES notation. Where only a bound is given, the exact number is not on record here.

From paper PMC12516379, “Rotamer-Controlled Self-Immolative Linkers Enable Tunable Release of Neurosteroid Oxime Prodrugs” (ACS Medicinal Chemistry Letters, 2025) come the findings set out here.

Data set [1] is described as follows: Aqueous solubility by visual inspection in acetate buffer (pH 5). As to conditions: sodium acetate buffer, pH 5, aqueous buffer, thermodynamic from solid.
Experimental: For the solubility assessment, acetate buffer (pH 5) was selected as the media of choice to ensure prodrug stability during analysis.
High aqueous solubility was determined by visual inspection of 5 mg solid material in 0.5 mL
sodium acetate buffer solution. This media was selected to ensure stability of prodrugs during
dissolution in 50 mg/mL aqueous media.
The nature of data set [2]: PBS stability assay at 37 °C via LC-MS/MS. The format is physicochemical. As to conditions: 37 °C; for half-life at 3 µM: phosphate-buffered saline (DPBS), pH 7.03, PBS.
A short description of data set [3]: Stability in acetate buffer pH 5.0 at room temperature via HPLC (UV). The data set is classed as physicochemical. The method, then:
(§1) Stability studies were conducted in PBS and acetate buffer utilizing high performance liquid chromatography for potential drug storage considerations. […]
(§2) All experiments were performed in duplicate and results are presented as the average of two experimental replicates.
(§3) 1.1 Aqueous Stability in PBS and Acetate Buffer via HPLC
(§4) Material and Instrumentation
(§5) HPLC grade acetonitrile (MeCN) […] HPLC grade water (H 2O), and formic acid (FA) were purchased from Fisher Scientific.
(§6) Puradisc 4 mm PTFE (0.45 μm) syringe filters from Cytiva. Gibco ® Dulbecco’s phosphate-buffered saline (DPBS 1X, no calcium, no magnesium, pH = 7.03) and acetate buffer (pH = 5.0, 10 mM) were purchased directly from Thermo Fisher Scientific and Cytiva, respectively.
(§7) Aqueous stability experiments were performed on an Agilent 1100 HPLC equipped with an Agilent G1315B diode array detector, an Agilent G1316A heated column compartment, and a Zorbax Eclipse XDB-C18 (4.6 x 150 mm, 5 μm) column.
(§8) Procedure for Aqueous Stability Experiments
(§9) Each sample was first weighed out in two separate 2.0 mL vials using an analytical balance.
(§10) Unless otherwise specified, the test compounds were then dissolved in the aqueous media (PBS or acetate buffer) at a standard concentration of 1 mg/mL. All mixtures were subsequently sonicated for approximately 30 sec. […]
(§11) min), precipitates observed in sample solutions were filtered with a PTFE syringe filter prior to analysis. Immediately after sample preparation, injection by the HPLC autosampler was performed, which was recorded as the initial time point (t = 0 min). Solutions were then kept in the autosampler at RT and reinjected at designated intervals without additional filtration or sample modification. Remaining prodrug was defined by the area under the curve (AUC) at 254 nm. Aqueous stability was ascertained by calculating the percentage of the parent compound remaining after each time point. Linear regression of the time (x-axis) vs. ln(%remaining) (y-axis) plot afforded the rate constant k (slope = -k). Pseudo first-order half-lives were then calculated by the following equation: t1/2 = 0.693/k.

The nature of data set [4]: Stability in PBS at room temperature via HPLC (UV). The data set is classed as physicochemical. Particulars: phosphate-buffered saline (DPBS). The method, then: as §1, §2, §3, §4, §5, §6, §7, §8, §9, §10, §11
The nature of data set [5]: Plasma stability assay at 37 °C via LC-MS/MS, human plasma.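 As to all read-outs here: prodrugs at 3 µM incubated in human plasma at 37 °C, intact prodrug quantified by LC-MS/MS over time, values are means of duplicate runs.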 The data set is classed as in vitro ADME. As to conditions: for half-life at 3 µM: human, plasma.

As usually defined, the solubility is the dissolved amount per volume that the medium holds. Read a high solubility as much dissolved substance. `C/C(=N\OC(=O)N(C)C[C@@H]1CCN1)[C@H]1CC[C@H]2[C@@H]3CCC4=CC(=O)CC[C@]4(C)[C@H]3CC[C@]12C` [20o] displayed a solubility in data set [1] above 10000 µg/mL. In data set [2] (PBS, 2 h), the “PBS, 37 °C %rem. at 2h (Table S23)” value was determined as 14%. Further, the half-life at 3 µM is 54 min in data set [2] (3 µM, LC-MS/MS, read-out: t1/2 in PBS at 37 °C (Tables S14-S17) (converted)); 54 min in data set [2] (LC-MS/MS, read-out: Half-life (t½) PBS 37°C (converted)); 54 min in data set [2] (read-out: PBS, 37 °C t½ (Table S23) (converted)); 17.4 min in data set [5] (3 µM, LC-MS/MS, read-out: t1/2 in human plasma at 37 °C (Tables S10-S13, S18) (converted)); 17.4 min in data set [5] (LC-MS/MS, read-out: Half-life (t½) Plasma 37°C (converted)); 17.4 min in data set [5] (read-out: Plasma, 37 °C t½ (Table S23) (converted)). Also, the half-life at 1 mg/mL in data set [3] (pH 5, acetate buffer pH 5.0, RT, 1 mg/mL, HPLC 254 nm, read-out: t1/2 in acetate buffer at RT (Tables S5-S8) (converted)) was above 168 h; in data set [3] (pH 5, acetate buffer pH 5.0, rt, HPLC (UV), read-out: Half-life (t½) pH 5.0 rt (converted)) it was above 168 h; in data set [3] (pH 5, acetate buffer pH 5.0, rt, read-out: t½: pH 5.0, rt (Table S23) (converted)) it was above 168 h; in data set [4] (pH 7.03, DPBS pH 7.03, RT, 1 mg/mL, HPLC 254 nm, read-out: t1/2 in PBS buffer at RT (Tables S1-S4) (converted)), 378 ± 5.4 min; in data set [4] (pH 7.03, PBS, rt, HPLC (UV), read-out: Half-life (t½) PBS rt (converted)) it was 378 min; in data set [4] (pH 7.03, PBS, rt, read-out: t½: PBS, rt (Table S23) (converted)), 378 min. The “Plasma, 37 °C %rem. at 2h (Table S23)” value in data set [5] (2 h) came out at 1%.
